Test results reported in patent US7598278B2, “Administration of pyridinedicarboxylic acid compounds for stimulating or inducing the growth of human keratinous fibers and/or arresting their loss” (L'Oreal, priority 2002, dated 2009).
Where two headings read alike, the source gives them in different places.

Tests used:
[1] = tested on: men exhibiting androgenetic alopecia of stage III to V according to the Hamilton classification; conditions: for No. of hairs/per cm^2 (DE): mean ± standard deviation
Procedure: Pyridine-2,4-dicarboxylic acid was tested in the form of the Na double salt formulated at a concentration of 5% in an aqueous/alcoholic lotion.
The evaluation of the effectiveness of the treatments was carried out by determining the total pilar density of hairs per cm^2 (DE) using the phototrichogram technique. This examination was carried out before treatment (M0) and after 3 months of treatment (M3).

[2] = tested on: men exhibiting androgenetic alopecia of stage III to V according to the Hamilton classification; experiment: 1st study: in vivo activity, total pilar density of hairs per cm^2 (DE) by phototrichogram; set-up: species or system human; conditions: for No. of hairs/per cm^2 (DE): mean ± standard deviation
Text: It was studied at a concentration of 2%, formulated in a ternary lotion based on propylene glycol, ethanol and water.

proline hydroxylase = conditions: K. Majamaa et al., Eur. J. Biochem., 138, 1984, 239-245; cited from earlier work

Row | SMILES | hair loss (decrease in total density) compared with placebo areas, times smaller ([1]; 5% lotion, 3 months, versus placebo areas) | No. of hairs/per cm^2 (DE) ([1]; M0, before treatment, scalp area to receive 5% aqueous/alcoholic lotion, 22 men) | No. of hairs/per cm^2 (DE) ([1]; M3, after 3 months, 5% aqueous/alcoholic lotion, 30 μl once daily, 5 days per week, topical on scalp) | DE variation (%) ([1]; mean of the variation at M3 with respect to M0, 5% lotion, 30 μl once daily, 5 days per week, 3 months) | change of total density of treated areas (in words) ([2]; 2% lotion, 3 months, placebo areas do not change) | No. of hairs/per cm^2 (DE) ([2]; M0, before treatment, scalp area to receive 2% lotion (propylene glycol, ethanol, water), 25 men) | No. of hairs/per cm^2 (DE) ([2]; M3, after 3 months, 2% lotion, 30 μl once daily, 5 days per week, topical on scalp) | DE variation (%) ([2]; M3 with respect to M0, 2% lotion, 30 μl once daily, 5 days per week, 3 months) | inhibition of proline hydroxylase (in words) (proline hydroxylase)
1 | O=C([O-])c1ccnc(C(=O)[O-])c1.[Na+].[Na+] [Na disalt of Pyridine-2,4-dicarboxylic acid] | 4 times | 249 ± 50 hairs/per cm^2 | 246 ± 50 hairs/per cm^2 | −0.97% | – | – | – | – | –
2 | O=C(O)c1ccnc(C(=O)O)c1 [Pyridine-2,4-dicarboxylic acid] | – | – | – | – | increase in the total density | 213 ± 45 hairs/per cm^2 | 224 ± 53 hairs/per cm^2 | 4.4% | very weak inhibitors
3 | O=C(O)c1ccc(C(=O)O)nc1 [pyridine-2,5-dicarboxylic acids, pyridine-2,5-dicarboxylic acid] | – | – | – | – | – | – | – | – | very weak inhibitors
